The results in this text go back to ChEMBL document CHEMBL1201862, “PubChem BioAssay data set” (2004).

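All cell lines were grown in 96-well plates and treated with compound for 48 hours. GI50 = concentration required for 50% inhibition of growth.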 The source made the active and inactive calls. Rule as the data show it: active = GI50 up to about 1.1 µM and inactive = higher. A value given as a limit tells only on which side of the number the result lay.

Among the test systems are SK-MEL-5; UO-31; MCF7; ACHN; SW-620; HOP-62; IGROV-1; DU-145; MDA-MB-231; OVCAR-8; PC-3; U-251; NCI-H522; LOX IMVI; KM12; MOLT-4; SK-OV-3; HL-60; SN12C; NCI-H226.
Holding throughout (experiment): NCI-60 cell line screen, 48 h

With `COc1cc2c(cc1C)NC(=O)/C2=C/c1c(Cl)[nH]c2ccccc12`, the GI50 was 3.15 µM (inactive) with SK-MEL-5; 10.3 µM (inactive) in the assay with UO-31; 3.8 µM (inactive) with MCF7; 10.6 µM (inactive) with ACHN; 4.56 µM (inactive) in the assay with SW-620; 3.28 µM (inactive) in the assay on HOP-62. Moreover, the GI50 is 3.3 µM (inactive) in the assay with IGROV-1; 13.3 µM (inactive) with DU-145; 3.95 µM (inactive) in the assay with MDA-MB-231; 11.8 µM (inactive) with OVCAR-8; 5.21 µM (inactive) in the assay on PC-3; 4.69 µM (inactive) in the assay on U-251. Also, the GI50 in the assay on NCI-H522 is 6.75 µM (inactive); in the assay on LOX IMVI, 4.48 µM (inactive); in the assay on KM12, 3.1 µM (inactive); in the assay on MOLT-4, 4.05 µM (inactive); with SK-OV-3 it was 1.47 µM (inactive); in the assay with HL-60 it was 2.39 µM (inactive). Also, the GI50 with SN12C was 5.3 µM (inactive).

As to `C=C(C1=CC(=O)C(C)(C)O1)[C@@H]1CC=C([C@@H]2CC[C@H]3[C@@]2(C)CC[C@H]2C(C)(C)C(=O)[C@H](O)C[C@]32C)[C@H](O)O1`, the GI50 was 17.5 µM (inactive) in the assay on NCI-H226; 11.7 µM (inactive) in the assay on SK-MEL-5; 1.53 µM (inactive) in the assay on UO-31; 0.546 µM (active) in the assay with MCF7; 1.66 µM (inactive) in the assay with ACHN; 1.66 µM (inactive) in the assay with SW-620. Besides, the GI50 in the assay with HOP-62 is 3.15 µM (inactive); in the assay on IGROV-1 it was 2.18 µM (inactive); in the assay with DU-145, 1.03 µM (active); in the assay on MDA-MB-231, 2.15 µM (inactive); with OVCAR-8 it was 2.07 µM (inactive); in the assay with PC-3, 1.31 µM (inactive). The GI50 in the assay on U-251 was 1.62 µM (inactive); in the assay with LOX IMVI, 1.81 µM (inactive); in the assay on KM12, 3.86 µM (inactive); in the assay with MOLT-4, 0.982 µM (active); with SK-OV-3, 14.6 µM (inactive); with HL-60 it was 2.24 µM (inactive). Also, the GI50 in the assay with SN12C was 1.98 µM (inactive).

`COC1=CC23CCCN2CCc2cc4c(cc2C3C1O)OCO4` (stereo unspecified): the GI50 was > 100 µM (inactive) with NCI-H226; 20 µM (inactive) with SK-MEL-5; 48 µM (inactive) in the assay on UO-31; 48.5 µM (inactive) with MCF7; 22.3 µM (inactive) in the assay on ACHN; 66.1 µM (inactive) in the assay on SW-620. Besides, the GI50 with IGROV-1 was 28.8 µM (inactive); in the assay with DU-145, 43 µM (inactive); in the assay on MDA-MB-231, > 100 µM (inactive); with OVCAR-8, > 100 µM (inactive); in the assay on PC-3, 59.3 µM (inactive); in the assay with U-251, > 100 µM (inactive). For the same compound, the GI50 in the assay on NCI-H522 was 29.2 µM (inactive); in the assay with LOX IMVI, 37.1 µM (inactive); with KM12 it was 47 µM (inactive); in the assay with MOLT-4 it was 66.7 µM (inactive); in the assay on SK-OV-3, 27 µM (inactive); in the assay with HL-60, 25.8 µM (inactive). Also, the GI50 in the assay with SN12C was 57.5 µM (inactive).

Consider `C=C(C)CCN(C(=O)OC(C)(C)C)c1cc(C(C)C)co1`, for which the GI50 in the assay with NCI-H226 was 57.7 µM (inactive); with SK-MEL-5 it was 44.3 µM (inactive); with UO-31 it was > 100 µM (inactive); in the assay with MCF7, 40.4 µM (inactive); with ACHN, 73.6 µM (inactive); with SW-620, 56 µM (inactive). Further, the GI50 is > 100 µM (inactive) with HOP-62; > 100 µM (inactive) in the assay on IGROV-1; 45 µM (inactive) in the assay with DU-145; > 100 µM (inactive) with MDA-MB-231; 37.5 µM (inactive) in the assay on OVCAR-8; 22.4 µM (inactive) with PC-3. Besides, the GI50 in the assay on U-251 is 26.7 µM (inactive); in the assay on LOX IMVI, 28 µM (inactive); in the assay with KM12, 64.3 µM (inactive); in the assay on MOLT-4, 30.3 µM (inactive); in the assay on SK-OV-3, > 100 µM (inactive); with HL-60 it was 11.8 µM (inactive). In addition, the GI50 in the assay with SN12C is > 100 µM (inactive).
